The nature of data set [1]: Drug level in Sprague-Dawley rat liver microsomes assessed as CYP450-mediated compound formation treated with (S)-2-amino-3-methyl-N-((S)-3-methyl-1-((S)-3-methyl-1-((S)-3-methyl-1-oxo-1-(phenethylamino)butan-2-ylamino)-1-oxobutan-2-ylamino)-1-oxobutan-2-yl)butanamide at 1 mM preincubated with NADPH regenerating system followed by microsome addition measured after 15 to 60 mins by HR-HPLC-MS method. It counts as ADME. To be noted: 1000 µM.

The test system of another data set is Plasmodium falciparum. As to the kind of experiment: Antiprotozoal activity against IEF stage of Plasmodium falciparum NF54 after 48 hrs by [3H]-hypoxanthine incorporation assay. Format: functional, organism-based.
Data set [2] in a line: Passive permeability of the compound at 500 uM after 5 hrs by PAMPA. Format: ADME. In general terms: PAMPA measures passive passage across an artificial lipid membrane.
Data set [3] is described as follows: Half life in Galleria mellonella hemolymph plasma at 0.5 mM by HPLC-MS method. It counts as ADME, cell-free.
The subject of the next data set is Escherichia coli. As to the kind of experiment: Antibacterial activity against Escherichia coli ATCC 25922 assessed as growth inhibition up to 128 ug/ml. Format: functional, organism-based.
A further data set has as its system Micrococcus luteus. As to the kind of experiment: Antibacterial activity against Micrococcus luteus ATCC 9341 assessed as growth inhibition up to 128 ug/ml. Format: functional, organism-based.
Data set [4] relates to Trypanosoma brucei rhodesiense. Briefly: Antiprotozoal activity against trypomastigote stage of Trypanosoma brucei rhodesiense STIB900 after 72 hrs by Alamar Blue assay. It counts as functional, organism-based. In general terms: The colour change of resazurin is a common sign of viable cells or microbes.
For another data set, the system named is Enterococcus faecalis. As to the kind of experiment: Antibacterial activity against Enterococcus faecalis ATCC 29212 assessed as growth inhibition up to 128 ug/ml. Format: functional, organism-based.
A further data set has as its system Pseudomonas aeruginosa. As to the kind of experiment: Antibacterial activity against Pseudomonas aeruginosa ATCC 27853 assessed as growth inhibition up to 128 ug/ml. It counts as functional, organism-based.
In data set [5] the test system is Staphylococcus aureus. Briefly: Antibacterial activity against methicillin-resistant Staphylococcus aureus ATCC 43300 assessed as growth inhibition up to 128 ug/ml. Format: functional, organism-based.
The subject of data set [6] is Staphylococcus aureus. Briefly: Antibacterial activity against Staphylococcus aureus ATCC 29213 assessed as growth inhibition up to 128 ug/ml. It counts as functional, organism-based.

This note sets out measurements from ChEMBL document CHEMBL4177762, “Combined Approach of Backbone Amide Linking and On-Resin N-Methylation for the Synthesis of Bioactive and Metabolically Stable Peptides” (J Med Chem, 2018).

By IC50 is commonly meant the concentration that inhibits the measured activity by half. Low values mean greater potency in that assay, high ones weaker potency in that assay. One may read the half-life as the time in which the quantity being followed falls by half. A higher half-life goes with slow loss.

Each structure is given as a SMILES string. Converted amounts (≈) assume the structure as drawn. The source made the active and inactive calls. No cut-off for these calls is given here. Non-standard residues stand in square brackets, D forms with d. Residues, ends and D or L forms follow the SMILES beside them. *: point of attachment. NH(4-OH-phenethyl) = Oc1ccc(CCN*)cc1; Tryptamide = c1ccc2c(CCN*)c[nH]c2c1; Val(3-OH) = CC(C)(O)[C@H](N)C(=O)O; NMeF = CN[C@@H](Cc1ccccc1)C(=O)O; NMeL = CN[C@@H](CC(C)C)C(=O)O; NHPhenethyl = c1ccc(CCN*)cc1; NMeV = CN[C@H](C(=O)O)C(C)C; NMeA = CN[C@@H](C)C(=O)O

In the case of `CC(C)[C@H](N)C(=O)N[C@H](C(=O)N[C@H](C(=O)N[C@H](C(=O)NCCc1ccccc1)C(C)C)C(C)(C)O)C(C)C` (H-VV[Val(3-OH)]V-NHPhenethyl), the Drug metabolism result in data set [1] is “Metabolite_Detected”. Consider `CN[C@@H](Cc1ccccc1)C(=O)N(C)[C@H](C(=O)N(C)[C@@H](CC(C)C)C(=O)N(C)[C@H](C(=O)NCCc1ccccc1)C(C)C)C(C)C` (H-[NMeF][NMeV][NMeL][NMeV]-NHPhenethyl), for which, in the data set with Plasmodium falciparum, the IC50 is 0.1 µg/mL (≈ 0.157 µM). For the compound `CC(C)[C@H](N)C(=O)N[C@H](C(=O)N[C@H](C(=O)N[C@@H](Cc1ccccc1)C(=O)NCCc1ccccc1)C(C)C)C(C)C` (H-VVVF-NHPhenethyl), the permeability entry in data set [2] is “Impermeable”. `CN[C@H](C(=O)N(C)[C@H](C(=O)N(C)[C@H](C(=O)N(C)[C@@H](CC(C)C)C(=O)NCCc1ccccc1)C(C)C)C(C)C)C(C)C` (H-[NMeV][NMeV][NMeV][NMeL]-NHPhenethyl): in data set [2], the permeability entry was “Permeable”. In [3], this compound displayed a half-life at 500 µM of more than 240 min. As to `CC(C)[C@H](N)C(=O)N[C@H](C(=O)N[C@H](C(=O)N[C@H](C(=O)NCCc1ccccc1)C(C)C)C(C)C)C(C)(C)O` (H-V[Val(3-OH)]VV-NHPhenethyl), the Drug metabolism result in data set [1] was “Metabolite_Detected”.

Take `CC(C)C[C@H](NC(=O)[C@@H](NC(=O)[C@@H](NC(=O)[C@@H](N)C(C)C)C(C)C)C(C)C)C(=O)NCCc1ccccc1` (H-VVVL-NHPhenethyl): the permeability result in [2] is “Impermeable”. This compound also came in with a half-life at 500 µM in [3] of 30 min. As to `CC(C)C[C@@H](NC=O)C(=O)N[C@@H]1C(=O)N[C@H](Cc2ccccc2)C(=O)N[C@H](C(C)C)C(=O)N[C@@H](Cc2ccc(O)cc2)C(=O)N[C@@H](Cc2c[nH]c3ccccc23)C(=O)O[C@@H]1C`, half-maximal inhibition in the data set on Plasmodium falciparum (IC50) was put at 0.995 µg/mL (≈ 1.19 µM). For `CN[C@@H](Cc1ccccc1)C(=O)N(C)[C@@H](Cc1ccccc1)C(=O)N(C)[C@@H](Cc1ccccc1)C(=O)N(C)[C@@H](Cc1ccccc1)C(=O)N(C)[C@@H](Cc1ccccc1)C(=O)NCCc1ccccc1` (H-[NMeF][NMeF][NMeF][NMeF][NMeF]-NHPhenethyl), the “growth inhibition (GI)” value in the data set with Escherichia coli, in the data set with Micrococcus luteus, in the data set with Enterococcus faecalis, with Pseudomonas aeruginosa, with Staphylococcus aureus [5] and in the data set with Staphylococcus aureus [6] was “inactive” throughout. For the same compound, in [4], the result was Active. Also, the IC50 with Plasmodium falciparum was found to be 0.2 µg/mL (≈ 0.216 µM).

For `CN[C@@H](Cc1ccccc1)C(=O)N[C@H](C(=O)N(C)[C@H](C(=O)N(C)[C@H](C(=O)N(C)[C@H](C(=O)N(C)[C@@H](Cc1ccccc1)C(=O)NCCc1ccccc1)C(C)C)C(C)C)C(C)C)C(C)C` (H-[NMeF]V[NMeV][NMeV][NMeV][NMeF]-NHPhenethyl), the half-maximal inhibitory concentration (IC50) in the data set with Plasmodium falciparum is 0.14 µg/mL (≈ 0.159 µM). Same read-out and setting: with `CN[C@@H](CC(C)C)C(=O)N(C)[C@@H](CC(C)C)C(=O)N(C)[C@@H](CC(C)C)C(=O)N(C)[C@@H](CC(C)C)C(=O)NCCc1c[nH]c2ccccc12` (H-[NMeL][NMeL][NMeL][NMeL]-Tryptamide) the figure was 0.6 µg/mL (≈ 0.897 µM).

In the case of `CN[C@H](C(=O)N(C)[C@H](C(=O)N(C)[C@H](C(=O)N(C)[C@@H](Cc1ccccc1)C(=O)NCCc1ccccc1)C(C)C)C(C)C)C(C)C` (H-[NMeV][NMeV][NMeV][NMeF]-NHPhenethyl), the permeability entry in data set [2] was “Permeable”. `CC(C)[C@H](N)C(=O)N[C@H](C(=O)N[C@H](C(=O)N[C@H](C(=O)NCCc1ccc(O)cc1)C(C)C)C(C)C)C(C)C` (H-VVVV-{NH(4-OH-phenethyl)}): the Drug metabolism result in data set [1] is “Metabolite_Detected”. Turning to `CN[C@@H](CC(C)C)C(=O)N(C)[C@@H](CC(C)C)C(=O)N(C)[C@@H](CC(C)C)C(=O)N(C)[C@@H](C)C(=O)NCCc1ccccc1` (H-[NMeL][NMeL][NMeL][NMeA]-NHPhenethyl), in the data set on Plasmodium falciparum, half-maximal inhibition (IC50) required 31 µg/mL (≈ 52.7 µM).
